Experiments:
[1] = tested on: rats having the urination disorder associated with diabetes; assay: Test Example 6: urination disorder model associated with streptozocin-induced diabetes, compound A versus compound C; format: in vivo; conditions: STZ diabetes model
Description: As described below, a model of a urination disorder associated with streptozocin-induced diabetes was prepared as a urination disorder model in accordance with Test Example 4 to evaluate the effects of the compound A and the compound C on a urination disorder. This model has no benign prostatic hyperplasia and is a model of a urination disorder associated with neuropathy and smooth muscle contraction disorder.
The body weights of Rats (male, Crl:CD(SD), 5-week-old; Charles River Laboratories Japan, Inc.) were measured. On the basis of the body weight, the rats were grouped or divided into two (2) groups. The day after the rats were grouped, a first group received intraperitoneal administration of a citrate buffer (pH 4.5) (10 mL/kg) having a concentration of 0.1 mmol/L, and a second group received intraperitoneal administration of streptozocin (STZ; Sigma-Aldrich) (50 mg/kg). Streptozocin (STZ) was administered in the form of a solution of streptozocin having a concentration of 5 mg/mL in the citrate buffer.
About one (1) week after streptozocin (STZ) was administered, the body weight and the fasting blood glucose were measured. In the streptozocin (STZ) administration group (the second group), individuals having a fasting blood glucose level of not less than 300 mg/dL were used as animals with induced diabetes. These animals with induced diabetes are a model having no abnormality of the prostate (having no benign prostatic hyperplasia). On the basis of the body weight and the fasting blood glucose level, the animals (models) with induced diabetes were grouped or divided into three (3) groups by randomized, multivariable block allocation.
To the three model groups with induced diabetes, a 0.5 v/v % Polysorbate 80 solution (0.5% P) (10 mL/kg), the compound A (3 mg/kg), and the compound C (dutasteride) (0.3 mg/kg) were orally administered, respectively, wherein the administration schedule in all groups was a frequency of once a day, only on weekdays, over four (4) weeks. Moreover, to the above-mentioned first group, a 0.5 v/v % Polysorbate 80 solution (0.5% P) (10 mL/kg) was orally administered in the same administration schedule (normal group). On the last day of administration, a cannula was inserted into and secured to the dome of the bladder under isoflurane anesthesia, and cystometry (Cystometogram, CMG) was conducted in the order of under awake condition and under urethane anesthesia to measure the intravesical pressure, the voided volume, and the residual urine volume. After the completion of the measurement, the blood was collected under deep isoflurane anesthesia, and then the prostate (ventral prostate, dorsolateral prostate) was extracted and each was weighed. Moreover, the blood glucose level in the collected blood was measured.
Normal group: citrate buffer 10 mL/kg (intraperitoneal administration), 0.5% P 10 mL/kg (oral administration) (n=10) • Solvent group (control group): STZ 50 mg/kg (intraperitoneal administration), 0.5% P 10 mL/kg (oral administration) (n=10) • Group A3: STZ 50 mg/kg (intraperitoneal administration), Compound A 3 mg/kg (oral administration) (n=10) • Group C0.3: STZ 50 mg/kg (intraperitoneal administration), Compound C (dutasteride) 0.3 mg/kg (oral administration) (n=10)
Urination parameter: In the same manner as in Test Example 4, the residual urine volume (mL) and the urination efficiency (%) were determined as urination parameters in each urination, and the average value of two measurements was taken as a measured value of each individual.
Prostate weight: In the same manner as in Test Example 4, the weight of the prostate (ventral prostate, dorsolateral prostate, and whole) was converted to a tissue weight per 100 g of the body weight. For Group A3, which received the compound A, and Group C0.3, which received the compound C, the inhibition rate of the weight of the prostate relative to the weight of the prostate in the solvent group was calculated (with one decimal place). […]

[2] = tested on: lower urinary tract obstruction model of rats (female); assay: Test Example 1: urination function in lower urinary tract obstruction model of female rats; format: in vivo; conditions: oral once a day 2 weeks, Compound A 10 mg/kg
Description: A lower urinary tract obstruction model of rats was used as a test system. A test substance was orally administered to the lower urinary tract obstruction model repeatedly over two (2) weeks to examine the action on the urination function in the lower urinary tract obstruction model.
More specifically, the rats (female, Crl:CD(SD), 8-week-old; Charles River Laboratories Japan, Inc.) were operated to form lower urinary tract obstruction and repeatedly received oral administration of the test substance at a frequency of once a day over two (2) weeks. After the completion of the administration, each rat was subjected to bladder catheterization under anesthesia, cystometry under no anesthesia, then cystometry under urethane anesthesia, and euthanasia under deep anesthesia, and the tissues (bladder, kidney) of the rat were extracted or surgically removed. As a normal group, the rats without operation for forming lower urinary tract obstruction were used.
The test system, the test substances, and the dosage are as follows. • Normal group: 0.5 v/v % Polysorbate 80 solution, 10 mL/kg (n=6) • Solvent group (control group): 0.5 v/v % Polysorbate 80 solution, 10 mL/kg (n=15) • Group A: Compound A, 10 mg/kg (n=15) • Group B3: Compound B, 3 mg/kg (n=7) • Group B10: Compound B, 10 mg/kg (n=7)
After urination, the residual urine was aspirated from the outlet end of the catheter placed in the bladder to measure the volume (mL) of the residual urine.
After urination, the weight of the voided urine was measured to determine the voided volume (g=mL), and then the urination efficiency was calculated by the following equation: Urination efficiency (%)=[(Voided volume (mL))/(Voided volume (mL)+Residual urine volume (mL))]×100
Bladder capacity (mL)=Voided volume (mL)+Residual urine volume (mL)
Moreover, the wet weight of the extracted bladder and that of the extracted kidney were measured.

[3] = Compound A 3 mg/kg, in comparison with the solvent group (p<0.05)
[4] = Compound A oral 3 mg/kg, 4 weeks
[5] = Compound A oral 3 mg/kg, relative to solvent group
[6] = female rats, lower urinary tract obstruction, vs control group

Structure (SMILES): CC(=O)O[C@]1(C(C)=O)C[C@@H](O)[C@H]2[C@@H]3C=C(Cl)C4=CC(=O)OC[C@]4(C)[C@H]3CC[C@@]21C [Compound A, 17α-acetoxy-6-chloro-15β-hydroxy-2-oxa-4,6-pregnadiene-3,20-dione]
- therapeutic effect on diabetes ([1]; Compound A 3 mg/kg): no therapeutic effect
- weights of the ventral prostate, the dorsolateral prostate, and the whole prostate ([1]; Compound A 3 mg/kg, compared with the solvent group (P<0.05)): significant decrease
- residual urine volume, cystometry (CMG) under awake condition [1, 3]: significantly decreased
- urination efficiency, cystometry (CMG) under awake condition [1, 3]: significantly improved
- bladder contraction force on urination by nomogram analysis ([1]; Compound A 3 mg/kg, in comparison with the solvent group and Group C0.3): strong bladder contraction force
- effect on the blood glucose level ([1]; Compound A 3 mg/kg, vs solvent group): did not statistically affect
- Blood glucose level [1, 4]: 972.4 ± 312.3 mg/dL
- Prostate weight, dorsolateral prostate [1, 4]: 38.8 ± 4.2 mg/100 g body weight
- Prostate weight, ventral prostate [1, 4]: 61.2 ± 12.4 mg/100 g body weight
- Prostate weight, whole [1, 4]: 99.9 ± 15.5 mg/100 g body weight
- Dorsolateral prostate atrophy rate [1, 5]: (40.2%)
- Ventral prostate atrophy rate [1, 5]: (40.0%)
- Whole prostate atrophy rate [1, 5]: (40.1%)
- survival rate ([2]; female lower urinary tract obstruction rats): no decrease
- wet weights of the bladder and the kidney ([2]; female rats, lower urinary tract obstruction): in the direction of significantly inhibiting the increase
- residual urine volume ([2]; female rats, lower urinary tract obstruction, vs control (solvent) group): significantly decreased
- bladder capacity [2, 6]: significantly decreased
- urination efficiency [2, 6]: increased

Source: patent US20240041899A1, “SOLID PREPARATION” (ASKA Pharmaceutical Co., Ltd., priority 2020, published 2024)
